Where “and” joins values, the source holds several entries; their conditions need not be identical. Identical values can stand only once. Like-named read-outs stand apart in the source and are kept apart here.
Columns and labels:
[1] = test system: p53 signaling (p53RE-bla HCT-116 cells); assay: cells; type: cell-based
[2] = test system: p53 signaling (p53RE-bla HCT-116 cells)
[3] = test system: p53 signaling (p53RE-bla HCT-116 cells); assay: cells; conditions: Homo sapiens
[4] = test system: p53 signaling (p53RE-bla HCT-116 cells); assay: cells; type: cell-based; conditions: for Emax: HCT-116, read-out: efficacy
[5] = test system: p53 signaling (p53RE-bla HCT-116 cells); assay: cells; type: cell-based; remark: listed apart in the source
[6] = test system: p53 signaling (p53RE-bla HCT-116 cells); conditions: for EC50: read-out: p53 activation EC50
[7] = HCT-116, read-out: p53 activation EC50, cherry pick confirmation
[8] = HCT-116, read-out: p53 activation EC50, primary screening
[9] = HCT-116, read-out: p53 activation efficacy, cherry pick confirmation
[10] = HCT-116, read-out: p53 activation efficacy, primary screening
[11] = Homo sapiens, HCT-116, read-out: p53 activation EC50, cherry pick confirmation
[12] = Homo sapiens, HCT-116, read-out: p53 activation efficacy, cherry pick confirmation

## COP(=S)(OC)Oc1ccc([N+](=O)[O-])c(C)c1 [Fenitrothion]
[1]; Homo sapiens, HCT-116, 0.5 h
  EC50: 4.18 µM
[2]
  p53 activation EC50, cherry pick confirmation: inactive
  p53 activation EC50, primary screening: inactive
  p53 activation efficacy, cherry pick confirmation: inactive
  p53 activation efficacy, primary screening: inactive
[3]; HCT-116
  EC50: 9.91 µM
[3]; HCT-116, read-out: efficacy
  Emax: 116%
[3]; [7]
  EC50: 9.34 µM
[3]; [8]
  EC50: 2.58 µM
[3]; [9]
  Emax: 93.3%
[3]; [10]
  Emax: 59.9%
p53RE-bla HCT-116 cells
  Viability EC50, cherry pick confirmation: inactive
  Viability EC50, primary screening: inactive
  Viability efficacy, cherry pick confirmation: inactive
  Viability efficacy, primary screening: inactive
[4]; Homo sapiens, HCT-116
  EC50: 10.4 µM
[5]
  p53 activation EC50, cherry pick confirmation: inactive
  p53 activation EC50, primary screening: inactive
  p53 activation efficacy, cherry pick confirmation: inactive
  p53 activation efficacy, primary screening: inactive

## COP(=S)(OC)Oc1cc(Cl)c(Br)cc1Cl [Bromofos]
[1]; Homo sapiens, HCT-116, 0.5 h
  EC50: 16.2 µM
[1]; Homo sapiens, HCT-116, read-out: efficacy
  Emax: 40.6%
[2]
  p53 activation EC50: inactive
[3]; HCT-116
  EC50: 17.8 µM
[3]; HCT-116, read-out: efficacy
  Emax: 66.6%
p53RE-bla HCT-116 cells
  Viability EC50: inactive
  Viability efficacy: inactive
[4]
  EC50: Inactive
[5]
  p53 activation EC50: inactive
  p53 activation efficacy: inactive
[6]
  p53 activation efficacy: 62.741
  EC50: 15.1 µM

## CCc1c2c(nc3ccc(OC(=O)N4CCC(N5CCCCC5)CC4)cc13)-c1cc3c(c(=O)n1C2)COC(=O)[C@]3(O)CC [Irinotecan, reference compound]
[1]
  EC50: Inactive
[3]; HCT-116
  EC50: 0.23 µM
[3]; HCT-116, read-out: efficacy
  Emax: 109%
[4]; Homo sapiens, HCT-116
  EC50: 0.29 µM
[4]; Homo sapiens
  Emax: 79.9%

## Cc1cc(OC(=O)N(C)C)nn1C(=O)N(C)C [Dimetilan]
[1]
  EC50: Inactive
[2]
  p53 activation EC50, cherry pick confirmation: inactive
  p53 activation efficacy, cherry pick confirmation: inactive
[3]; HCT-116
  EC50: 5.44 µM
[3]; HCT-116, read-out: efficacy
  Emax: 34.6%
[3]; [7]
  EC50: 6.19 µM
[3]; [9]
  Emax: 33.8%
p53RE-bla HCT-116 cells
  Viability EC50, cherry pick confirmation: inactive
  Viability EC50, primary screening: inactive
  Viability efficacy, cherry pick confirmation: inactive
  Viability efficacy, primary screening: inactive
[4]; Homo sapiens, HCT-116
  EC50: 5.11 µM
[4]; Homo sapiens
  Emax: 43.6%
[5]
  p53 activation EC50, cherry pick confirmation: inactive
  p53 activation EC50, primary screening: inactive
  p53 activation efficacy, cherry pick confirmation: inactive
  p53 activation efficacy, primary screening: inactive

## COP(=O)(OC)O/C(=C\Cl)c1cc(Cl)c(Cl)cc1Cl [Tetrachlorvinphos (Gardona), Tetrachlorvinphos]
[1]; Homo sapiens, HCT-116, 0.5 h
  EC50: 2.53 µM
[3]; HCT-116
  EC50: 10.5 µM
[3]; HCT-116, read-out: efficacy
  Emax: 39.9%
[4]; Homo sapiens, HCT-116
  EC50: 18.1 µM

## COP(=O)(OC)O/C(C)=C/C(=O)N(C)C [Dicrotophos]
[1]; Homo sapiens, HCT-116, 0.5 h
  EC50: 11.5 µM
[2]
  p53 activation EC50: inactive
[3]; HCT-116
  EC50: 11.4 µM
[3]; HCT-116, read-out: efficacy
  Emax: 40.6%
p53RE-bla HCT-116 cells
  Viability EC50: inactive
  Viability efficacy: inactive
[4]; Homo sapiens, HCT-116
  EC50: 9.07 µM
[5]
  p53 activation EC50: inactive
  p53 activation efficacy: inactive
[6]
  p53 activation efficacy: 47.1617
  EC50: 14.3 µM

## O=C(O)CCCc1ccc(N(CCCl)CCCl)cc1 [Chlorambucil]
[2]
  p53 activation EC50: inactive
  p53 activation efficacy: inactive
[3]; HCT-116, read-out: p53 activation EC50
  EC50: 22.6 µM
[3]; HCT-116, read-out: p53 activation efficacy
  Emax: 25.2%
p53RE-bla HCT-116 cells
  Viability EC50: inactive
  Viability efficacy: inactive
[5]
  p53 activation efficacy: 39.7467
[5]; Homo sapiens, HCT-116, read-out: p53 activation EC50
  EC50: 25.7 µM
[5]; Homo sapiens, HCT-116, read-out: p53 activation efficacy
  Emax: 31.3%
[5]; read-out: p53 activation EC50
  EC50: 37.3 µM
[6]
  p53 activation EC50: inactive

## c1ccc2cc3c(cc2c1)-c1cccc2cccc-3c12 [Benzo(k)fluoranthene]
[1]; Homo sapiens, HCT-116, 0.5 h
  EC50: 10.4 µM
[3]; HCT-116
  EC50: 37 µM
[3]; HCT-116, read-out: efficacy
  Emax: 565%
p53RE-bla HCT-116 cells
  Viability EC50, HLM: inactive
  Viability EC50, No MS: inactive
  Viability EC50, RLM: inactive
  Viability Efficacy, HLM: inactive
  Viability Efficacy, No MS: inactive
  Viability Efficacy, RLM: inactive
[4]; Homo sapiens, HCT-116
  EC50: 32.9 µM
[5]
  p53 activation Efficacy, No MS: 189.362% and 164.004%
[5]; Homo sapiens, HCT-116, read-out: p53 activation EC50, No MS
  EC50: 8.42 µM
[5]; read-out: p53 activation EC50, No MS
  EC50: 12.2 µM

## COP(N)(=S)Oc1ccccc1C(=O)OC(C)C (centres unmarked) [Isocarbophos]
[1]; Homo sapiens, HCT-116, 0.5 h
  EC50: 25.6 µM
[2]
  p53 activation EC50, cherry pick confirmation: inactive
  p53 activation efficacy, cherry pick confirmation: inactive
[3]; HCT-116
  EC50: 4.93 µM
[3]; HCT-116, read-out: efficacy
  Emax: 83.1%
[3]; [7]
  EC50: 3.72 µM
[3]; [9]
  Emax: 78.7%
p53RE-bla HCT-116 cells
  Viability EC50, cherry pick confirmation: inactive
  Viability EC50, primary screening: inactive
  Viability efficacy, cherry pick confirmation: inactive
  Viability efficacy, primary screening: inactive
[4]; Homo sapiens, HCT-116
  EC50: 1.86 µM
[5]
  p53 activation EC50, primary screening: inactive
  p53 activation efficacy, primary screening: inactive
[5]; [11]
  EC50: 2.05 µM
[5]; [12]
  Emax: 32.4%

## Aflatoxin B1 [reference compound]
[1]
  EC50: inactive
[2]
  EC50: 4.5 µM and 5.3 µM and 3 µM
[4]
  EC50: inactive
[6]
  p53 activation efficacy: 77.9079 and 59.8273
  potency in the confirmation study compared to the primary screening: tenfold higher potency

## O=C1OC(O)C(Cl)=C1Cl (centres unmarked) [Mucochloric acid]
[2]
  p53 activation EC50, cherry pick confirmation: inactive
  p53 activation EC50, primary screening: inactive
  p53 activation efficacy, cherry pick confirmation: inactive
  p53 activation efficacy, primary screening: inactive
[3]; [8]
  EC50: 49.4 µM
[3]; [10]
  Emax: 51.8%
p53RE-bla HCT-116 cells
  Viability EC50, cherry pick confirmation: inactive
  Viability EC50, primary screening: inactive
  Viability efficacy, cherry pick confirmation: inactive
  Viability efficacy, primary screening: inactive
[5]
  p53 activation EC50, primary screening: inactive
  p53 activation efficacy, primary screening: inactive
[5]; [11]
  EC50: 15.9 µM
[5]; [12]
  Emax: 180%
[6]
  p53 activation EC50, cherry pick confirmation: inactive
  p53 activation efficacy, cherry pick confirmation: inactive

## CC(O)CN(CC(C)O)CC(C)O (centres unmarked) [Triisopropanolamine]
[2]
  p53 activation EC50, cherry pick confirmation: inactive
  p53 activation EC50, primary screening: inactive
  p53 activation efficacy, cherry pick confirmation: inactive
  p53 activation efficacy, primary screening: inactive
[3]; [8]
  EC50: 37 µM
[3]; [10]
  Emax: 40%
p53RE-bla HCT-116 cells
  Viability EC50, cherry pick confirmation: inactive
  Viability EC50, primary screening: inactive
  Viability efficacy, cherry pick confirmation: inactive
  Viability efficacy, primary screening: inactive
[5]
  p53 activation EC50, cherry pick confirmation: inactive
  p53 activation EC50, primary screening: inactive
  p53 activation efficacy, cherry pick confirmation: inactive
  p53 activation efficacy, primary screening: inactive
[6]
  p53 activation EC50, cherry pick confirmation: inactive
  p53 activation efficacy, cherry pick confirmation: inactive

## CCOP(=S)(OCC)SCSP(=S)(OCC)OCC [Ethion]
[1]; Homo sapiens, HCT-116, 0.5 h
  EC50: 5.91 µM
[2]
  p53 activation EC50: inactive
[3]; HCT-116
  EC50: 6.2 µM
[3]; HCT-116, read-out: efficacy
  Emax: 53.8%
p53RE-bla HCT-116 cells
  Viability EC50: inactive
  Viability efficacy: inactive
[4]; Homo sapiens, HCT-116
  EC50: 3.29 µM
[5]
  p53 activation EC50: inactive
  p53 activation efficacy: inactive
[6]
  p53 activation efficacy: 48.0253
  EC50: 2.04 µM

## c1ccc2c(c1)-c1cccc3cccc-2c13 [Fluoranthene]
[2]
  p53 activation EC50, cherry pick confirmation: inactive
  p53 activation EC50, primary screening: inactive
  p53 activation efficacy, cherry pick confirmation: inactive
  p53 activation efficacy, primary screening: inactive
[3]; [8]
  EC50: 24.4 µM
[3]; [10]
  Emax: 33.6%
p53RE-bla HCT-116 cells
  Viability EC50, cherry pick confirmation: inactive
  Viability EC50, primary screening: inactive
  Viability efficacy, cherry pick confirmation: inactive
  Viability efficacy, primary screening: inactive
[5]
  p53 activation EC50, cherry pick confirmation: inactive
  p53 activation EC50, primary screening: inactive
  p53 activation efficacy, cherry pick confirmation: inactive
  p53 activation efficacy, primary screening: inactive
[6]
  p53 activation EC50, cherry pick confirmation: inactive
  p53 activation efficacy, cherry pick confirmation: inactive

## COP(=S)(OC)Oc1nc(Cl)c(Cl)cc1Cl [Chlorpyrifos-methyl]
[1]; Homo sapiens, HCT-116, 0.5 h
  EC50: 1.78 µM
[2]
  p53 activation EC50, cherry pick confirmation: inactive
  p53 activation EC50, primary screening: inactive
  p53 activation efficacy, cherry pick confirmation: inactive
  p53 activation efficacy, primary screening: inactive
[3]; HCT-116
  EC50: 15.5 µM
[3]; HCT-116, read-out: efficacy
  Emax: 45%
[3]; [7]
  EC50: 21.6 µM
[3]; [8]
  EC50: 11 µM
[3]; [9]
  Emax: 62.8%
[3]; [10]
  Emax: 36.2%
p53RE-bla HCT-116 cells
  Viability EC50, cherry pick confirmation: inactive
  Viability EC50, primary screening: inactive
  Viability efficacy, cherry pick confirmation: inactive
  Viability efficacy, primary screening: inactive
[4]; Homo sapiens, HCT-116
  EC50: 24 µM
[5]
  p53 activation EC50, cherry pick confirmation: inactive
  p53 activation EC50, primary screening: inactive
  p53 activation efficacy, cherry pick confirmation: inactive
  p53 activation efficacy, primary screening: inactive

## C=CC1(C)OC(=O)N(c2cc(Cl)cc(Cl)c2)C1=O (centres unmarked) [Vinclozolin]
[2]
  p53 activation EC50, cherry pick confirmation: inactive
  p53 activation EC50, primary screening: inactive
  p53 activation efficacy, cherry pick confirmation: inactive
  p53 activation efficacy, primary screening: inactive
[3]; [8]
  EC50: 16.9 µM
[3]; [10]
  Emax: 39.4%
p53RE-bla HCT-116 cells
  Viability EC50, cherry pick confirmation: inactive
  Viability EC50, primary screening: inactive
  Viability efficacy, cherry pick confirmation: inactive
  Viability efficacy, primary screening: inactive
[5]
  p53 activation EC50, cherry pick confirmation: inactive
  p53 activation EC50, primary screening: inactive
  p53 activation efficacy, cherry pick confirmation: inactive
  p53 activation efficacy, primary screening: inactive
[6]
  p53 activation EC50, cherry pick confirmation: inactive
  p53 activation efficacy, cherry pick confirmation: inactive

Source: publication PMC9151520 (Archives of Toxicology, 2022)
